Measured values taken from ChEMBL document CHEMBL3808387, “Discovery of IWP-051, a Novel Orally Bioavailable sGC Stimulator with Once-Daily Dosing Potential in Humans” (ACS Med Chem Lett, 2016).

How the values were obtained:
[1] = Intrinsic clearance in Sprague-Dawley rat liver microsomes assessed per mg of protein at 2 uM after 10 to 30 mins by LC/MS/MS analysis in presence of NADPH; type: ADME; settings: read-out: CLH
[2] = target: Soluble guanylate cyclase (Homo sapiens, UniProt O75343+P33402+Q02108+Q02153); assay: Activation of SGC in HEK293 cells assessed as cGMP production after 20 mins by LC-MS/MS analysis in presence of NO-donor DETA-NONOate; type: cell-based
Sequence of Soluble guanylate cyclase (Q02153 whole entry): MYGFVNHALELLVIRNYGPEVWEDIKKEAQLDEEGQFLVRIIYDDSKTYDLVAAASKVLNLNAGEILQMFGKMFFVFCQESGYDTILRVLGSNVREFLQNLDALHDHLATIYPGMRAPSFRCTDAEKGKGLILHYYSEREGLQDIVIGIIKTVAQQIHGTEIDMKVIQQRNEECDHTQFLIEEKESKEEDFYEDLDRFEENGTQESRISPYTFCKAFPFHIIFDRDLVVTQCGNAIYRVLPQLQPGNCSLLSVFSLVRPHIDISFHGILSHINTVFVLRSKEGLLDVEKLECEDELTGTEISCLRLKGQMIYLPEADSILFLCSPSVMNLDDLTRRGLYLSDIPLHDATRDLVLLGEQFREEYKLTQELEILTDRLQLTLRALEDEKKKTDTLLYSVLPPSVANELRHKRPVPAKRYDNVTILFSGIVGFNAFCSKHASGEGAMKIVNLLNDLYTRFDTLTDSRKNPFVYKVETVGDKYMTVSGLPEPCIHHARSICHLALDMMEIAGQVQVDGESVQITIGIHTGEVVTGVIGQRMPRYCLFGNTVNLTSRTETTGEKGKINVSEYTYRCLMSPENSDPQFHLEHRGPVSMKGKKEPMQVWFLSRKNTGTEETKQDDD
Sequence of Soluble guanylate cyclase (O75343 whole entry): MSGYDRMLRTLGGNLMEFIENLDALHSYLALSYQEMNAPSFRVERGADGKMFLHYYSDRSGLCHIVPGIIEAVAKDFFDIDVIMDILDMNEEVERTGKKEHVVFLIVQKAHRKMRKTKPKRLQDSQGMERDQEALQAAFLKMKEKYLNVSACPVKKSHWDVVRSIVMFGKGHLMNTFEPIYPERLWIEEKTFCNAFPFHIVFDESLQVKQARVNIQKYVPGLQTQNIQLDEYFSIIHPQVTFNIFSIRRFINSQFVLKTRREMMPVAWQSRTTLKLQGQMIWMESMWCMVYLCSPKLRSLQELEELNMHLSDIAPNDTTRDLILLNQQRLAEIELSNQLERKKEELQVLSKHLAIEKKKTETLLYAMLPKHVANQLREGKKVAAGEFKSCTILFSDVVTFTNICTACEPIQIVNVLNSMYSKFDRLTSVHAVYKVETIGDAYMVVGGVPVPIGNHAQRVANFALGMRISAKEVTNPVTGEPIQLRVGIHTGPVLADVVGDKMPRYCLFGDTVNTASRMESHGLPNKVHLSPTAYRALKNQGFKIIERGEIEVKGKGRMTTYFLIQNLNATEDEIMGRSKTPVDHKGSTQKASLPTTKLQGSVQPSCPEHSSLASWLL
Sequence of Soluble guanylate cyclase (P33402 whole entry): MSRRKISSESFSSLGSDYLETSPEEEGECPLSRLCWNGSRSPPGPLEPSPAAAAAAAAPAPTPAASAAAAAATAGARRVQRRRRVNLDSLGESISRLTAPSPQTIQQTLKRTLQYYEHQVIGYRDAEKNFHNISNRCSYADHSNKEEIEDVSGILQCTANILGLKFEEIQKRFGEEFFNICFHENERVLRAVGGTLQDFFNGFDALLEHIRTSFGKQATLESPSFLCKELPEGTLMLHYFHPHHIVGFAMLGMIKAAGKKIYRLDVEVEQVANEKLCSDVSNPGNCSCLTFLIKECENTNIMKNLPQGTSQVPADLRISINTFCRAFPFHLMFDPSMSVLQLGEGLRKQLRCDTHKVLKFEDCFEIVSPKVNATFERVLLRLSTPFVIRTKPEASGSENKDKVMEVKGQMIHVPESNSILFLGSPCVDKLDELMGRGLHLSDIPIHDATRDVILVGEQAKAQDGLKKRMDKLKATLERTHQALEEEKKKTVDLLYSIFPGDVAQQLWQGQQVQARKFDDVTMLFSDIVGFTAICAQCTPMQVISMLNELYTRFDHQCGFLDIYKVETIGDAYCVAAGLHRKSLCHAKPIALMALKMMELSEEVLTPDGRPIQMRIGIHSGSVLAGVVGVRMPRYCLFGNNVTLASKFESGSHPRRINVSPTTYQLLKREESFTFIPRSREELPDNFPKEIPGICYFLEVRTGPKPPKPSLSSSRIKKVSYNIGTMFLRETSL
Sequence of Soluble guanylate cyclase (Q02108 whole entry): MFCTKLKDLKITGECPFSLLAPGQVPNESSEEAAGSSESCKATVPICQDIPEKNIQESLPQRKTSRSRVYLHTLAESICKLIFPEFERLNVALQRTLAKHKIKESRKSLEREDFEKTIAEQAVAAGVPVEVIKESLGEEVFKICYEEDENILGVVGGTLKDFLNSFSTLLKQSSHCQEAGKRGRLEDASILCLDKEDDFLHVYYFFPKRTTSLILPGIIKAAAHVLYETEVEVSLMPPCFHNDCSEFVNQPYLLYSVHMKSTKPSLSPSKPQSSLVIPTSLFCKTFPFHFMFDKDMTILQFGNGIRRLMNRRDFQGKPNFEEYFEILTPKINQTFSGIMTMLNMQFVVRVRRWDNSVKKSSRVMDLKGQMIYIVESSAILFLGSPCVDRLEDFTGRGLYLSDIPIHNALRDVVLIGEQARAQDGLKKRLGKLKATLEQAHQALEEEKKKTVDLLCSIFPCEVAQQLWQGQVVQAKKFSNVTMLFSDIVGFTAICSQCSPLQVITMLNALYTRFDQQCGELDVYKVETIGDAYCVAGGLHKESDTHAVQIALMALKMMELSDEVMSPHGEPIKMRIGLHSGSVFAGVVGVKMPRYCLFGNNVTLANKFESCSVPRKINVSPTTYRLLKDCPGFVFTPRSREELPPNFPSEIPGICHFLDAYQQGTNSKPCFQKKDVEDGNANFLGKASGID

[3] = Intrinsic clearance in human liver microsomes assessed per mg of protein at 2 uM after 10 to 30 mins by LC/MS/MS analysis in presence of NADPH; type: ADME; settings: read-out: CLH
[4] = target: Soluble guanylate cyclase (Homo sapiens) (UniProt Q02153+O75343+P33402+Q02108); assay: Activation of SGC in HEK293 cells assessed as cGMP production at 30 uM after 20 mins by LC-MS/MS analysis in presence of NO-donor DETA-NONOate; type: cell-based

| Compound | microsomal CLint at 2 µM [1] [µL/min/mg] | EC50 [2] [µM] | microsomal CLint at 2 µM [3] [µL/min/mg] | Emax [4] [%] |
| --- | --- | --- | --- | --- |
| CS(=O)(=O)c1cnc(-c2cc(-c3ccon3)n(Cc3ccccc3F)n2)nc1O | 13 | 0.9 | 15 | – |
| CN(c1ccccc1)S(=O)(=O)c1cnc(-c2cc(-c3ccon3)n(Cc3ccccc3F)n2)nc1O | 58 | 0.73 | 179 | – |
| Oc1nc(-c2cc(-c3ccon3)n(Cc3ncccc3F)n2)ncc1F | 7 | – | 15 | 44 |
| Oc1nc(-c2cc(-c3ncco3)n(Cc3ccccc3F)n2)ncc1F | 68 | 1.5 | 42 | – |
| Oc1nc(-c2cc(-c3ccon3)n(Cc3cccc(F)c3F)n2)ncc1F | 3 | 0.37 | 7 | – |
| Oc1nc(-c2cc(-c3ccon3)n(Cc3ccccc3F)n2)ncc1Cl | 5 | 0.59 | 7 | – |
| O=c1[nH]c(-c2cc(-c3ccon3)n(Cc3ccc(F)cc3F)n2)ncc1F | 4 | 0.53 | 4 | – |
| N#Cc1cc(-c2ncc(F)c(=O)[nH]2)nn1Cc1ccccc1F | 9 | – | 7 | – |
| N#Cc1cnc(-c2cc(-c3ccon3)n(Cc3ccccc3F)n2)nc1O | 14 | 0.5 | 8 | – |
| Oc1nc(-c2cc(-c3ccon3)n(Cc3ccccc3)n2)ncc1F | 10 | 0.88 | 11 | – |
| O=c1[nH]c(-c2cc(-c3ccon3)n(CCC(F)(F)C(F)(F)F)n2)ncc1F | 4 | 1.5 | 6 | – |
| CC(C)(O)c1cnc(-c2cc(-c3ccon3)n(Cc3ccccc3F)n2)nc1O | 8 | – | 8 | 40 |
| CN(C)S(=O)(=O)c1cnc(-c2cc(-c3ccon3)n(Cc3ccccc3F)n2)nc1O | 24 | – | 8 | 87 |
| Oc1nc(-c2cc(-c3cocn3)n(Cc3ccccc3F)n2)ncc1F | 9 | – | 4 | 78 |
| COc1nc(-c2cc(-c3ccon3)n(Cc3ccccc3F)n2)ncc1F | – | – | 20 | – |
| O=C(Nc1cnc(-c2cc(-c3ccon3)n(Cc3ccccc3F)n2)nc1O)c1ccccc1 | 26 | – | 14 | 53 |
| O=S(=O)(c1ccc(Cl)cc1)c1cnc(-c2cc(-c3ccon3)n(Cc3ccccc3F)n2)nc1O | 15 | 0.16 | 6 | – |
